Legend:
[1] = molecular target: T1, HIF-1α (Homo sapiens, UniProt Q16665); assay: Immunofluorescence of nuclear HIF-1α in A549 cells; assay type: cell-based; settings: 1–100 nM, hypoxia 16 h
Experimental: To further confirm the effects of Compound 12 on the inhibition of HIF-1α protein expression, we performed an immunofluorescent assay in A549 cells. Cells were treated with Compound 12 (1–100 nM) for 16 h under hypoxic conditions, and were then fixed with paraformaldehyde. Fixed cells were processed to allow immunostaining of HIF-1α by a HIF-1α antibody.
Figure 4 Compound 12 increased hydroxylation and proteasome-mediated degradation of HIF-1α (A) A549 cells were treated with Compound 12 (at concentrations of 0 nM, 1 nM, 10 nM, and 100 nM) for 16 h. […] Cells were immediately treated with cycloheximide (CHX, 100 μg/mL) for the time indicated, and HIF-1α protein levels were determined by western blotting. β-actin was used as an internal control. Half-life (t1/2) of HIF-1α protein was determined using relative expression levels of HIF-1α. […] The expression levels of HIF-1α, hydroxylated (OH)-HIF-1α at P402 or P564, and PHD2 were determined via western blotting using specific antibodies. […] Relative levels of ubiquitinated HIF-1α were quantified and graphed.
Cells were cultured on coverslips in four-well plates at a density of 1 × 10^5 cells/well, and allowed to attach for 24 h. […] Coverslips were mounted on slides, and cells were observed using fluorescence microscopy at 400X magnification (Carl Zeiss, AG, Germany).

[2] = molecular target: T1, HIF-1α; assay: Western blot of HIF-1α protein in hypoxic A549 cells; assay type: cell-based; settings: hypoxia 16 h
Experimental: Next, we evaluated the inhibitory effects of the nine aforementioned test compounds on HIF-1α protein accumulation by western blot analyses in A549 cells experiencing hypoxic conditions.
Treatment was under hypoxic conditions for 16 h. Cells were then lysed for western blot analysis, which was conduced with antibodies against HIF-1α and β-actin. Expression levels were quantified by ImageJ (NIH, Bethesda, MO, USA) and graphed. **P < 0.01 versus 1% O2 DMSO (D)-treated control group.
(B, C) After HEK-293 cells (B) and A549 cells (C) were treated with Compound 12 (at concentrations of 0 nM, 0.1 nM, 1 nM, 10 nM, 100 nM, and 1000 nM) under hypoxic conditions for 16 h, expression of HIF-1α was determined by western blot analysis and then graphed. (D, E) Half maximal inhibitory concentration (IC50) values were calculated using GraphPad Prism software, using the quantified HIF-1α levels determined in B and C.
HEK-293 cells and A549 cells were treated with Compound 12, at 0.1–1000 nM concentrations, under hypoxic conditions for 16 h.
Proteins extracted from cells using PRO-PREP (iNtRon Biotech, South Korea) were separated by SDS-PAGE and transferred to a nitrocellulose membrane (Whatman, Maidstone, UK). Membranes were blocked with 5% skim milk in Tris-buffered saline (TBS) containing 0.1% Tween-20 for 30 min at room temperature (RT). After blocking, membranes were incubated with specific primary antibodies overnight at 4°C, followed by incubation with horseradish peroxidase-conjugated mouse- or rabbit-IgG for 1 h at RT. Antibody binding was detected using an enhanced chemiluminescence (ECL) kit (BioRad, Hercules, CA) according to the manufacturer's instructions. Primary antibodies against the following factors were used: HIF-1α (BD Biosciences, San Diego, CA, USA), HIF-1β (Cell Signaling Technology, Danvers, MA, USA), β-actin (Santa Cruz Biotechnology, Santa Cruz, CA, USA), hydroxylated-HIF-1α (P564) (Cell Signaling Technology, Danvers, MA, USA), and PHD2 (Abcam, Cambridge, UK).

[3] = test system: secreted VEGF; assay: VEGF ELISA of A549 culture media; assay type: cell-based, human; settings: A549 cells, 10 and 100 nM, 16 h
Excerpt: As HIF-1α regulates transcription of its target genes, which are involved in angiogenesis, glucose metabolism, and metastasis in tumor progression, we determined the effects of Compound 12 on HIF-1 target gene expression at the mRNA level by semiquantitative RT-PCR. […] Thus, we checked secreted VEGF protein levels in culture media via ELISA.
Figure 5 Compound 12 suppressed HIF-1α target gene expression, and confirmation of in vitro results via determination of effects on angiogenesis in vivo (A) A549 cells were treated with Compound 12 (at concentrations of 0 nM, 1 nM, 10 nM, and 100 nM) for 16 h. The mRNA levels of HIF-1α target genes were determined by semiquantitative RT-PCR. β-actin was used as an internal control. D. DMSO vehicle control. N, normoxia; H, hypoxia. […] Media supernatant was collected, and secreted VEGF was determined by ELISA after removal of cellular debris. […] Cells that migrated through the membrane (8 μm pore size) were stained with hematoxylin and eosin, pictured as shown in upper panel, and counted (graph). *P < 0.05, **P < 0.01 versus VEGF-treated control. […] (F) Compound 12 (0.1 μg and 1 μg dosages) and retinoic acid (RA, positive control) were applied to the ED 4.5 CAM for two days, neovessel formation from the large vessels was observed, and percentages of positive angiogenic eggs (from total eggs tested) were calculated. […]

[4] = molecular target: T1, HIF-1α; assay: HIF-1α ubiquitination, IP/IB with MG132 in A549 cells; assay type: cell-based; settings: hypoxia 16 h, then MG132 20 μM 4 h, compared to normoxic control cells
Experimental: Figure 4 Compound 12 increased hydroxylation and proteasome-mediated degradation of HIF-1α (A) A549 cells were treated with Compound 12 (at concentrations of 0 nM, 1 nM, 10 nM, and 100 nM) for 16 h. Cells were fixed with paraformaldehyde; an immunofluorescence assay was then performed using anti-HIF-1α antibodies and Alexa Fluor 488-labeled secondary antibodies (green). Nuclei were stained with DAPI. N, normoxia; H, hypoxia. (B) A549 cells were treated with Compound 12 (10 nM concentration) and exposed to hypoxic conditions for 16 h. Cells were immediately treated with cycloheximide (CHX, 100 μg/mL) for the time indicated, and HIF-1α protein levels were determined by western blotting. β-actin was used as an internal control. Half-life (t1/2) of HIF-1α protein was determined using relative expression levels of HIF-1α. (C) A549 cells were treated with Compound 12 (at concentrations of 0 nM, 1 nM, 10 nM, and 100 nM) for 16 h. The expression levels of HIF-1α, hydroxylated (OH)-HIF-1α at P402 or P564, and PHD2 were determined via western blotting using specific antibodies. N, normoxia; H, hypoxia. (D) A549 cells were transfected with two kinds of small interfering RNAs targeting PHD2 and then treated with Compound 12 under hypoxic exposure for 16 h. Cell lysates were immunoblotted with an anti-HIF-1α and PHD2 antibody. […] Relative levels of ubiquitinated HIF-1α were quantified and graphed. […]

[5] = test system: HUVECs; assay: Matrigel tube formation assay, VEGF-induced; assay type: cell-based, human; settings: VEGF 20 ng/mL, 24 h

T1 sequence (Q16665 whole entry): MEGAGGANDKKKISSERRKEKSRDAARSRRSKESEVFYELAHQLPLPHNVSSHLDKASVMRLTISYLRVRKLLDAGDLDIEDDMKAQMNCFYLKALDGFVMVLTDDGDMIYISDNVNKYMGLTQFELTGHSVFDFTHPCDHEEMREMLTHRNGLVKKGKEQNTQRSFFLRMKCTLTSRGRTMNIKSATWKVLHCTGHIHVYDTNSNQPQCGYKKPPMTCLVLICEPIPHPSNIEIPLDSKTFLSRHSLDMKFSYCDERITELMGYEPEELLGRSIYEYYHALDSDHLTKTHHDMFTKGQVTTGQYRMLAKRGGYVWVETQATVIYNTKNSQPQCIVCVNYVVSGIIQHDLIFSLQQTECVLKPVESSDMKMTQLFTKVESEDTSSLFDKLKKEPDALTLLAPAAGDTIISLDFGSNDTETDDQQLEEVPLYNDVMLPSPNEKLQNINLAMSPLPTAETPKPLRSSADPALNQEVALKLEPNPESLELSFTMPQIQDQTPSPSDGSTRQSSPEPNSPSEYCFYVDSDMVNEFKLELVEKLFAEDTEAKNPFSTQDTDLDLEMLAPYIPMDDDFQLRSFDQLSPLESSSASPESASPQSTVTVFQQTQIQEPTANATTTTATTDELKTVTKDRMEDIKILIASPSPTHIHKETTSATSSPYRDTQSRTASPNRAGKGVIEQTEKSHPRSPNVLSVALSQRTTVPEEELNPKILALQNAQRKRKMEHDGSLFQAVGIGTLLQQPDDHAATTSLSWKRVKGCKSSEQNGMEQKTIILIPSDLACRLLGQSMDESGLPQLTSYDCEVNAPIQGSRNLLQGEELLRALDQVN

accumulation of nuclear HIF-1α [1]: inhibited in dose-dependent manner
subcellular localization of HIF-1α [1]: did not affect
inhibition at 0.001 µM ([2]; 1 nM, read-out: downregulation of HIF-1α protein expression): ~50%
inhibitory effect on HIF-1α accumulation (western blot) ([2]; 1 μM): most potent inhibitory effect
inhibition at 1 µM ([2]; 1 μM, compared to hypoxic control, read-out: reduction of HIF-1α protein levels): 80%
ubiquitination of HIF-1α [4]: significantly increased
SMILES: COc1ccc(-c2cn(CC3(C)C=Cc4cc([N+](=O)[O-])ccc4O3)nn2)cc1 (centres unmarked) [Compound 12, 4-(4-methoxyphenyl)-1-((2-methyl-6-nitro-2H-chromen-2-yl)methyl)-1H-1,2,3-triazole]
hypoxia-induced VEGF secretion [3]: significantly suppressed hypoxia-induced VEGF secretion, in a dose-dependent manner
VEGF-induced tube formation [5]: significantly inhibited
